Values joined by “and” are separate entries in the source; they are usually repeats but may differ in a detail not shown here. Equal entries are not always repeated.
Conditions: Fluid (supercritical or subcritical phases), Hot wire method

[HH] [hydrogen]
Conditions | thermal conductivity
323.19 K, 5191 kPa | 0.2032 W/m/K
323.19 K, 5193 kPa | 0.2032 W/m/K
323.19 K, 10094 kPa | 0.2067 W/m/K
323.19 K, 10100 kPa | 0.2065 W/m/K
323.2 K, 261 kPa | 0.1971 W/m/K and 0.197 W/m/K
323.2 K, 266 kPa | 0.1971 W/m/K
323.2 K, 267 kPa | 0.1973 W/m/K
323.2 K, 5186 kPa | 0.2029 W/m/K
323.2 K, 5188 kPa | 0.2031 W/m/K
323.2 K, 5190 kPa | 0.2031 W/m/K
323.2 K, 10084 kPa | 0.2067 W/m/K
323.2 K, 10087 kPa | 0.2067 W/m/K
323.2 K, 10095 kPa | 0.2065 W/m/K
323.2 K, 19987 kPa | 0.2147 W/m/K
323.2 K, 19989 kPa | 0.2142 W/m/K
323.2 K, 19998 kPa | 0.2146 W/m/K
323.2 K, 20000 kPa | 0.2142 W/m/K
323.2 K, 39984 kPa | 0.2311 W/m/K
323.2 K, 39993 kPa | 0.2306 W/m/K
323.2 K, 40006 kPa | 0.2312 W/m/K
323.2 K, 40011 kPa | 0.2304 W/m/K
323.2 K, 40020 kPa | 0.2313 W/m/K
323.2 K, 59948 kPa | 0.2488 W/m/K
323.2 K, 59968 kPa | 0.2483 W/m/K
323.2 K, 59985 kPa | 0.2488 W/m/K
323.2 K, 59986 kPa | 0.2482 W/m/K
323.2 K, 79963 kPa | 0.2659 W/m/K
323.2 K, 79984 kPa | 0.2654 W/m/K
323.2 K, 80001 kPa | 0.2659 W/m/K
323.2 K, 80012 kPa | 0.2648 W/m/K
323.2 K, 80034 kPa | 0.2657 W/m/K
323.2 K, 97707 kPa | 0.2804 W/m/K
323.2 K, 97716 kPa | 0.282 W/m/K
323.2 K, 97745 kPa | 0.2813 W/m/K
323.2 K, 97753 kPa | 0.2816 W/m/K
323.2 K, 97762 kPa | 0.2814 W/m/K
323.21 K, 19980 kPa | 0.2147 W/m/K
323.21 K, 59935 kPa | 0.2488 W/m/K
373.22 K, 598 kPa | 0.2223 W/m/K and 0.2224 W/m/K
373.22 K, 599 kPa | 0.2225 W/m/K
373.22 K, 5170 kPa | 0.2262 W/m/K and 0.226 W/m/K and 0.2261 W/m/K
373.22 K, 70084 kPa | 0.2757 W/m/K and 0.2758 W/m/K
373.22 K, 70086 kPa | 0.2758 W/m/K
373.22 K, 98187 kPa | 0.2983 W/m/K
373.22 K, 98197 kPa | 0.2988 W/m/K
373.23 K, 599 kPa | 0.2224 W/m/K
373.23 K, 4315 kPa | 0.2265 W/m/K
373.23 K, 4316 kPa | 0.2258 W/m/K and 0.2256 W/m/K
373.23 K, 5171 kPa | 0.2262 W/m/K
373.23 K, 10126 kPa | 0.2289 W/m/K
373.23 K, 10127 kPa | 0.2291 W/m/K
373.23 K, 10219 kPa | 0.2296 W/m/K and 0.2295 W/m/K and 0.2298 W/m/K
373.23 K, 30052 kPa | 0.2428 W/m/K and 0.2427 W/m/K
373.23 K, 30053 kPa | 0.2422 W/m/K
373.23 K, 30119 kPa | 0.2438 W/m/K
373.23 K, 30120 kPa | 0.2437 W/m/K and 0.2433 W/m/K
373.23 K, 30122 kPa | 0.2432 W/m/K
373.23 K, 49936 kPa | 0.2599 W/m/K and 0.2582 W/m/K and 0.2587 W/m/K
373.23 K, 50144 kPa | 0.2589 W/m/K and 0.2588 W/m/K
373.23 K, 69997 kPa | 0.2756 W/m/K
373.23 K, 69998 kPa | 0.2753 W/m/K and 0.2751 W/m/K
373.23 K, 97555 kPa | 0.3001 W/m/K
373.23 K, 97558 kPa | 0.2995 W/m/K
373.23 K, 97560 kPa | 0.2989 W/m/K
373.23 K, 98190 kPa | 0.2987 W/m/K
373.23 K, 98193 kPa | 0.2983 W/m/K
373.24 K, 10126 kPa | 0.2296 W/m/K
423.25 K, 5114 kPa | 0.2475 W/m/K
423.25 K, 10105 kPa | 0.2494 W/m/K and 0.2502 W/m/K
423.25 K, 30087 kPa | 0.262 W/m/K and 0.2619 W/m/K and 0.2615 W/m/K
423.25 K, 50102 kPa | 0.2764 W/m/K
423.25 K, 70147 kPa | 0.2939 W/m/K
423.25 K, 70150 kPa | 0.2927 W/m/K
423.25 K, 70155 kPa | 0.2923 W/m/K
423.25 K, 96975 kPa | 0.314 W/m/K
423.25 K, 96978 kPa | 0.3137 W/m/K
423.25 K, 96980 kPa | 0.3142 W/m/K
423.26 K, 403 kPa | 0.2426 W/m/K
423.26 K, 404 kPa | 0.2418 W/m/K
423.26 K, 5113 kPa | 0.2477 W/m/K
423.26 K, 5114 kPa | 0.2476 W/m/K
423.26 K, 10104 kPa | 0.2499 W/m/K
423.26 K, 50100 kPa | 0.2771 W/m/K and 0.2762 W/m/K
423.27 K, 400 kPa | 0.2421 W/m/K
